Values of other authors, collected in US20240226071A9, “SUSTAINED RELEASE OSMOTIC-CONTROLLED PHARMACEUTICAL COMPOSITION AND PREPARATION METHOD THEREOF” (Anxo Pharmaceutical Co., Ltd., priority 2022, published 2024).

**Q.** With O=C1[C@@H]2[C@H]3CC[C@H](C3)[C@@H]2C(=O)N1C[C@@H]1CCCC[C@H]1CN1CCN(c2nsc3ccccc23)CC1 [lurasidone] as the compound, how does the solubility in water read?
**A.** The solubility in water was “lower than 0.1 mg/mL”.
